Laboratory results published in paper PMC9421654, “Discovery of Substituted Di(pyridin-2-yl)-1,2,4-thiadiazol-5-amines as Novel Macrofilaricidal Compounds for the Treatment of Human Filarial Infections” (Journal of Medicinal Chemistry, 2022).
Values after ≈ are worked out from the molar mass of the structure shown. Like-named read-outs stand apart in the source and are kept apart here.

Key:
[1] = test system: O. gutturosa adult male worms; experiment: O. gutturosa adult worm ex vivo assay, motility; assay type: cell-based, Onchocerca gutturosa; details: Onchocerca gutturosa
Procedure, shortened: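 Adult male O. gutturosa from naturally infected cattle were cultured in supplemented MEM at 37 °C, 5% CO2, with four worms per concentration in serial 1-in-4 dilutions. Motility (0–10 scale) was scored every 24 h to 120 h. EC50 (geomean, n=2) for motility reduction came from 4PL fits, and viability was checked by MTT at 120 h.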

[2] = Kinetic solubility measurement; assay type: physicochemical; details: 10 mM DMSO stock solutions
Procedure, shortened: (§1)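 Human and rat liver microsomes (0.3 mg/mL) with 1 mM NADPH and 3µM substrate, 30 minutes at 37 °C in pH 7.4 phosphate/MgCl2, triplicate; LC-MS/MS percentage remaining. LogD: octanol/aqueous buffer (pH 7.4, 2.2, 6.8, 5), 24 h shaking at room temperature. Kinetic solubility: 200 µM, 2% DMSO, 24 h, filtered.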

[3] = LogD measurement (octanol-water); assay type: physicochemical
Procedure, shortened: as §1

[4] = read-out: O. gutturosa EC50 μM (SD), ex vivo adult worm motility reduction, SD in brackets
[5] = read-out: O. gutturosa EC50 (uM) motility inhibition, supplement, SD in brackets in the PDF table
[6] = read-out: O. gutturosa EC50, adult worm motility, bound stated
[7] = supplement, read-out: measured logD

In the case of `Cc1cccnc1Nc1nc(-c2ccc(OC(C)C)cn2)ns1` [Compound 10, 3-(5-Isopropoxypyridin-2-yl)-N-(3-methylpyridin-2-yl)-1,2,4-thiadiazol-5-amine], the EC50 [1, 4] is reported as 0.06 µM, the EC50 [1, 5] is reported as 0.055 µM and the EC50 [1, 6] is reported as under 0.1 µM. The solubility kinetic at 24 h [2] was 3.2 µM (≈ 1.05 µg/mL), the logD at 24 h ([3]; pH 7.4, read-out: logD) was 2.88 and the logD at 24 h [3, 7] was 2.88.
Work on `Cc1cccnc1Nc1nc(-c2ccc(OC3CC3)cn2)ns1` [Compound 11, 3-(5-Cyclopropoxypyridin-2-yl)-N-(3-methylpyridin-2-yl)-1,2,4-thiadiazol-5-amine] yielded an EC50 [1, 4] of 0.11 µM, an EC50 [1, 5] of 0.106 µM and a solubility kinetic at 24 h [2] of 1.84 µM (≈ 0.599 µg/mL). The logD at 24 h ([3]; pH 7.4, read-out: logD) was 3.4 and the logD at 24 h [3, 7] was 3.4.
`Cc1cccnc1Nc1nc(-c2ccc(OC3CC4(C3)CN(C3CC3)C4)cn2)ns1` [Compound 12, 3-[5-[(2-Cyclopropyl-2-azaspiro[3.3]heptan-6-yl)oxy]-2-pyridyl]-N-(3-methyl-2-pyridyl)-1,2,4-thiadiazol-5-mine] showed an EC50 [1, 4] of 0.39 µM, an EC50 [1, 5] of 0.393 µM and a solubility kinetic at 24 h [2] of 13.1 µM (≈ 5.5 µg/mL). For the same compound, the logD at 24 h ([3]; pH 7.4, read-out: logD) was 2.1 and the logD at 24 h [3, 7] was 2.1.
`Cc1cccnc1Nc1nc(-c2ccc(OC3CCN(C4CC4)CC3)cn2)ns1` [Compound 19, 3-[5-[(1-Cyclopropyl-4-piperidyl)oxy]-2-pyridyl]-N-(3-methyl-2-pyridyl)-1,2,4-thiadiazol-5-amine] showed an EC50 [1, 4] of 0.06 µM, an EC50 [1, 5] of 0.064 µM and a solubility kinetic at 24 h [2] of 3.05 µM (≈ 1.25 µg/mL). For the same compound, the logD at 24 h ([3]; pH 7.4, read-out: logD) was 3.3 and the logD at 24 h [3, 7] was 3.3.
With `CC(C)Oc1ccc(-c2nsc(Nc3ncccc3C(C)C)n2)nc1` [Compound 25, 3-(5-Isopropoxy-2-pyridyl)-N-(3-isopropyl-2-pyridyl)-1,2,4-thiadiazol-5-amine] the EC50 [1, 4] was 0.1 µM, the EC50 [1, 5] was 0.099 µM and the solubility kinetic at 24 h [2] was 2.58 µM (≈ 0.917 µg/mL). The logD at 24 h ([3]; pH 7.4, read-out: logD) was 2.85 and the logD at 24 h [3, 7] was 2.85.
Work on `Cc1ccnc(-c2nsc(Nc3ncccc3C(F)(F)F)n2)c1` [Compound 26, 3-(4-Methylpyridin-2-yl)-N-(3-(trifluoromethyl)pyridin-2-yl)-1,2,4-thiadiazol-5-amine] yielded an EC50 [1, 4] of 0.03 µM, an EC50 [1, 5] of 0.029 µM and a solubility kinetic at 24 h [2] of 0.9 µM (≈ 0.304 µg/mL). For the same compound, the logD at 24 h ([3]; pH 7.4, read-out: logD) was 2.45 and the logD at 24 h [3, 7] was 2.45.
Work on `CC(C)c1ccnc(-c2nsc(Nc3ncccc3C(F)(F)F)n2)c1` [Compound 27] yielded an EC50 [1, 4] of 0.01 µM, an EC50 [1, 6] of under 0.1 µM and a solubility kinetic at 24 h [2] of 1.6 µM (≈ 0.585 µg/mL). It also gave a logD at 24 h ([3]; pH 7.4, read-out: logD) of 2.5 and a logD at 24 h [3, 7] of 2.5.
Work on `CNc1cccnc1Nc1nc(-c2ccc(OC(C)C)cn2)ns1` [Compound 30] yielded an EC50 [1, 4] of 0.22 µM, an EC50 [1, 5] of 0.219 µM and a solubility kinetic at 24 h [2] of 1.9 µM (≈ 0.651 µg/mL). For the same compound, the logD at 24 h ([3]; pH 7.4, read-out: logD) was 2.9 and the logD at 24 h [3, 7] was 2.9.
With `CC(C)Oc1ccc(-c2nsc(Nc3ncccc3N(C)C)n2)nc1` [Compound 31, N^2-(3-(5-Isopropoxypyridin-2-yl)-1,2,4-thiadiazol-5-yl)-N3,N3-dimethylpyridine-2,3-diamine] the EC50 [1, 4] was 0.08 µM, the EC50 [1, 5] was 0.083 µM and the solubility kinetic at 24 h [2] was 22.5 µM (≈ 8.02 µg/mL). The logD at 24 h ([3]; pH 7.4, read-out: logD) was 3.23 and the logD at 24 h [3, 7] was 3.23.
`CN(C)c1cccnc1Nc1nc(-c2ccc(OC3CC3)cn2)ns1` [Compound 32] gave an EC50 [1, 4] of 0.74 µM, an EC50 [1, 5] of 0.743 µM and a solubility kinetic at 24 h [2] of 8.92 µM (≈ 3.16 µg/mL). The logD at 24 h ([3]; pH 7.4, read-out: logD) was 2.5 and the logD at 24 h [3, 7] was 2.5.
Compound `CC(C)c1ccnc(-c2nsc(Nc3cc(C(F)(F)F)ccn3)n2)c1` [Compound 35, 3-(4-Isopropylpyridin-2-yl)-N-(4-(trifluoromethyl)pyridin-2-yl)-1,2,4-thiadiazol-5-amine] has an EC50 [1, 4] of 0.05 µM, a solubility kinetic at 24 h [2] of under 1 µM and a logD at 24 h ([3]; pH 7.4, read-out: logD) of 3. The logD at 24 h [3, 7] was 3.
`CC(=O)N(C)c1cccnc1Nc1nc(-c2ccc(OC(C)C)cn2)ns1` [Compound 47, N-(2-((3-(5-Isopropoxypyridin-2-yl)-1,2,4-thiadiazol-5-yl)amino)pyridin-3-yl)-N-methylacetamide] gave an EC50 [1, 4] of 1.07 µM, a solubility kinetic at 24 h [2] of 109 µM (≈ 41.9 µg/mL) and a logD at 24 h ([3]; pH 7.4, read-out: logD) of 1.62. It also gave a logD at 24 h [3, 7] of 1.62.
`CC(C)Oc1ccc(-c2nsc(Nc3ncccc3N(C)C(=O)C3CC3)n2)nc1` [Compound 50, N-(2-((3-(5-Isopropoxypyridin-2-yl)-1,2,4-thiadiazol-5-yl)amino)pyridin-3-yl)-N-methylcyclopropanecarboxamide] showed an EC50 [1, 4] of 0.56 µM, an EC50 [1, 5] of 0.55 µM and a solubility kinetic at 24 h [2] of 2.71 µM (≈ 1.11 µg/mL). The logD at 24 h ([3]; pH 7.4, read-out: logD) was 2.4 and the logD at 24 h [3, 7] was 2.4.
